Test results from patent publication US8124623B2, “5-hydroxymethyl-oxazolidin-2-one-derivatives and their uses as antibacterials” (Actelion Pharmaceuticals Ltd., priority 2006, dated 2012).
Values after ≈ are worked out from the molar mass of the structure shown. Like-named read-outs stand apart in the source and are kept apart here.

Columns and labels:
[1] = tested on: S. aureus A798; experiment: MIC, broth microdilution (NCCLS); assay type: cell-based; details: for MIC: Staphylococcus aureus
Experimental: These assays have been performed following the description given in “Methods for dilution Antimicrobial Susceptibility Tests for Bacteria that Grow Aerobically, 4th ed.; Approved standard: NCCLS Document M7-A4; National Committee for Clinical Laboratory Standards Villanova, Pa., USA, 1997”. Minimal inhibitory concentrations (MICs; mg/l) were determined in cation-adjusted Mueller-Hinton Broth (BBL) by a microdilution method following NCCLS guidelines (National Committee for Clinical Laboratory Standards. Methods for Dilution Antimicrobial Susceptibility). The pH1 of the test medium was 7.2-7.3. In the particular case wherein the compound to be tested is a compound of formula IPDc wherein at least one of R^1 and R^2 represents OPO3H2, then the test was carried out in the presence of human alkaline phosphatase (concentration: 1 U/mL). In the particular case wherein the compound to be tested is a compound of formula IPDG wherein R^1 represents a group OCOR^5, then the test may be carried out in the presence of 50% human serum.

[2] = tested on: 209 diverse clinical isolates of C. difficile; experiment: MIC, CLSI agar dilution, clinical isolates; assay type: cell-based, Clostridium difficile; details: Clostridioides difficile, 209 clinical isolates of C. difficile
[3] = tested on: C. difficile strain NC13366; assay type: cell-based
[4] = tested on: M. catarrhalis A894; experiment: MIC, broth microdilution (NCCLS); assay type: cell-based
[5] = tested on: S. Pneumoniae 49619; experiment: MIC, broth microdilution (NCCLS); assay type: cell-based
Experimental: (§1) These assays have been performed following the description given in “Methods for dilution Antimicrobial Susceptibility Tests for Bacteria that Grow Aerobically, 4th ed.; Approved standard: NCCLS Document M7-A4; National Committee for Clinical Laboratory Standards Villanova, Pa., USA, 1997”. Minimal inhibitory concentrations (MICs; mg/l) were determined in cation-adjusted Mueller-Hinton Broth (BBL) by a microdilution method following NCCLS guidelines (National Committee for Clinical Laboratory Standards. Methods for Dilution Antimicrobial Susceptibility). The pH1 of the test medium was 7.2-7.3.

[6] = tested on: E. faecalis 29212; experiment: MIC, broth microdilution (NCCLS); assay type: cell-based; details: Enterococcus faecalis, read-out: MIC against E. faecalis 29212
Experimental: as §1

[7] = tested on: C. difficile ATCC 43596; experiment: MIC, anaerobic broth microdilution, reference strains; assay type: cell-based, Clostridium difficile; details: Clostridioides difficile, ATCC43596, 48 h, read-out: MIC regarding C. difficile ATCC 43596
[8] = tested on: C. difficile ATCC 9689; experiment: as above; assay type: cell-based, Clostridium difficile; details: Clostridioides difficile, ATCC9689, 48 h, read-out: MIC regarding C. difficile ATCC 9689
[9] = tested on: C. difficile NC 13366; experiment: as above; assay type: cell-based, Clostridium difficile; details: Clostridioides difficile, NC13366, 48 h, read-out: MIC regarding C. difficile NC 13366
[10] = tested on: C. perfringens DSM 756; experiment: microbe, parasite or virus in culture; assay type: cell-based; details: Clostridium perfringens, DSM756, 48 h, read-out: MIC regarding C. perfringens DSM 756
[11] = A798, read-out: MIC S. aureus A798
[12] = A798, in the absence of human serum, read-out: MIC against S. aureus A798
[13] = A798, in the presence of human alkaline phosphatase (1 U/mL), read-out: MIC against S. aureus A798
[14] = A798, phosphatase absent, read-out: MIC against S. aureus A798

Work on `COc1c(N2CCC(COc3ccc(N4C[C@H](CO)OC4=O)cc3F)C2)c(F)cc2c(=O)c(C(=O)O)cn(C3CC3)c12` (mixture of isomers) [Example 9, 1-cyclopropyl-6-fluoro-7-{(RS)-3-[2-fluoro-4-((R)-5-hydroxymethyl-2-oxo-oxazolidin-3-yl)-phenoxymethyl]-pyrrolidin-1-yl}-8-methoxy-4-oxo-1,4-dihydro-quinoline-3-carboxylic acid] yielded an MIC [1, 11] of 1 µg/mL.
`Cc1ncc([N+](=O)[O-])n1CCO` [metronidazole] was tested, and the MIC90 [2] was 1 µg/mL (≈ 5.84 µM) and the “de novo toxin A production in supernatants” value ([3]; 1 and 8 μg/mL, day 5 vs day 1, high density stationary phase cultures) was “did not inhibit toxin A production under these conditions or did so only weakly”.
For `COc1c(N2CCC(O)(COc3ccc(N4C[C@H](CO)OC4=O)cc3F)C2)c(F)cc2c(=O)c(C(=O)O)cn(C3CC3)c12` (mixture of isomers) [Example 7, 1-cyclopropyl-6-fluoro-7-{(RS)-3-[2-fluoro-4-((R)—S-hydroxymethyl-2-oxo-oxazolidin-3-yl)-phenoxymethyl]-3-hydroxy-pyrrolidin-1-yl}-8-methoxy-4-oxo-1,4-dihydro-quinoline-3-carboxylic acid], the “MIC S. aureus A798” value [1] was 1 µg/mL (≈ 1.66 µM), the “MIC M. catarrhalis A894” value [4] was 0.063 µg/mL (≈ 0.105 µM) and the “MIC S. Pneumoniae 49619” value [5] was 0.25 µg/mL (≈ 0.416 µM).
`C[C@H](N)C(=O)OC[C@H]1CN(c2ccc(OCC3(O)CCN(c4cc5c(cc4F)c(=O)c(C(=O)O)cn5C4CC4)CC3)c(F)c2)C(=O)O1.Cl` [Example 4, 7-(4-{-4-[(R)-5-((S)-2-amino-propionyloxymethyl)-2-oxo-oxazolidin-3-yl]-2-fluoro-phenoxymethyl}-4-hydroxy-piperidin-1-yl)-1-cyclopropyl-6-fluoro-4-oxo-1,4-dihydro-quinoline-3-carboxylic acid hydrochloride] gave an MIC [1, 12] of 0.5 µg/mL.
In the case of `O=C(O)c1cn(C2CC2)c2cc(N3CCC(O)(COc4ccc(N5C[C@H](COP(=O)(O)O)OC5=O)cc4F)CC3)c(F)cc2c1=O` [Example 5, 1-cyclopropyl-6-fluoro-7-{4-[2-fluoro-4-((R)-2-oxo-5-phosphonooxymethyl-oxazolidin-3-yl)-phenoxymethyl]-4-hydroxy-piperidin-1-yl}-4-oxo-1,4-dihydro-quinoline-3-carboxylic acid], the MIC [1, 13] is reported as 0.25 µg/mL and the MIC [1, 14] is reported as over 16 µg/mL.
With `CN[C@H](CC(C)C)C(=O)N[C@H]1C(=O)N[C@@H](CC(N)=O)C(=O)N[C@H]2C(=O)N[C@H]3C(=O)N[C@H](C(=O)N[C@H](C(=O)O)c4cc(O)cc(O)c4-c4cc3ccc4O)[C@H](O)c3ccc(c(Cl)c3)Oc3cc2cc(c3O[C@@H]2O[C@H](CO)[C@@H](O)[C@H](O)[C@H]2O[C@H]2C[C@](C)(N)[C@H](O)[C@H](C)O2)Oc2ccc(cc2Cl)[C@H]1O` [vancomycin] the “de novo toxin A production in supernatants” value [3] was “did not inhibit toxin A production under these conditions or did so only weakly”.
`O=C(O)c1cn(C2CC2)c2cc(N3CCC(COc4ccc(N5C[C@H](CO)OC5=O)cc4F)CC3)c(F)cc2c1=O` [Example 2, 1-cyclopropyl-6-fluoro-7-{4-[2-fluoro-4-((R)-5-hydroxymethyl-2-oxo-oxazolidin-3-yl)-phenoxymethyl]-piperidin-1-yl}-4-oxo-1,4-dihydro-quinoline-3-carboxylic acid] gave an MIC [1, 11] of 0.25 µg/mL (≈ 0.439 µM).
`O=C(O)c1c[nH]c2nc(N3CCC(O)(COc4ccc(N5C[C@H](CO)OC5=O)cc4F)CC3)c(F)cc2c1=O` [Example 14, 6-fluoro-7-{4-[2-fluoro-4-((R)-5-hydroxymethyl-2-oxo-oxazolidin-3-yl)-phenoxymethyl]-4-hydroxy-piperidin-1-yl}-4-oxo-1,4-dihydro-[1,8]naphthyridine-3-carboxylic acid] showed an MIC [1, 11] of 4 µg/mL (≈ 7.32 µM).
`O=C(O)c1cn(C2CC2)c2cc(N3CCC(COc4ccc(N5C[C@H](CO)OC5=O)cc4F)C3)c(F)cc2c1=O` (mixture of isomers) [Example 8, 1-cyclopropyl-6-fluoro-7-{(RS)-3-[2-fluoro-4-((R)-5-hydroxymethyl-2-oxo-oxazolidin-3-yl)-phenoxymethyl]-pyrrolidin-1-yl}-4-oxo-1,4-dihydro-quinoline-3-carboxylic acid] was tested, and the MIC [1, 11] was 0.125 µg/mL.
`O=C(O)c1cn(C2CC2)c2cc(N3CCC(COc4ccc(N5C[C@H](CO)OC5=O)cc4F)(OP(=O)(O)O)CC3)c(F)cc2c1=O` [Example 10, 1-cyclopropyl-6-fluoro-7-{4-[2-fluoro-4-((R)-5-hydroxymethyl-2-oxo-oxazolidin-3-yl)-phenoxymethyl]-4-phosphonooxy-piperidin-1-yl}-4-oxo-1,4-dihydro-quinoline-3-carboxylic acid] gave an MIC [1, 13] of 0.5 µg/mL and an MIC [1, 14] of 16 µg/mL (≈ 24 µM).
Compound `O=C(O)c1cn(C2CC2)c2nc(N3CCC(O)(COc4ccc(N5C[C@H](CO)OC5=O)cc4F)CC3)c(F)cc2c1=O` [Example 3, 1-cyclopropyl-6-fluoro-7-[4-[2-fluoro-4-((R)-5-hydroxymethyl-2-oxo-oxazolidin-3-yl)-phenoxymethyl]-4-hydroxy-piperidin-1-yl]-4-oxo-1,4-dihydro-[1,8]naphthyridine-3-carboxylic acid] has an MIC [1, 11] of 0.25 µg/mL (≈ 0.426 µM) and an MIC ([4]; Moraxella catarrhalis, A894) of 0.5 µg/mL (≈ 0.852 µM).
With `C[C@H](N)C(=O)OC[C@H]1CN(c2ccc(OCC3CCN(c4cc5c(cc4F)c(=O)c(C(=O)O)cn5C4CC4)CC3)c(F)c2)C(=O)O1.Cl` [Example 12, 7-(4-{4-[(R)-5-((S)-2-amino-propionyloxymethyl)-2-oxo-oxazolidin-3-yl]-2-fluoro-phenoxymethyl}-piperidin-1-yl)-1-cyclopropyl-6-fluoro-4-oxo-1,4-dihydro-quinoline-3-carboxylic acid hydrochloride] the MIC [1, 12] was 0.5 µg/mL.
With `O=C(O)c1c[nH]c2cc(N3CCC(O)(COc4ccc(N5C[C@H](CO)OC5=O)cc4F)CC3)c(F)cc2c1=O` [Example 13, 6-fluoro-7-{4-[2-fluoro-4-((R)-5-hydroxymethyl-2-oxo-oxazolidin-3-yl)-phenoxymethyl]-4-hydroxy-piperidin-1-yl}-4-oxo-1,4-dihydro-quinoline-3-carboxylic acid] the MIC [1, 11] was 2 µg/mL (≈ 3.67 µM).
In the case of `CCn1cc(C(=O)O)c(=O)c2cc(F)c(N3CCC(COc4ccc(N5C[C@H](CO)OC5=O)cc4F)CC3)cc21` [Example 11, 1-ethyl-6-fluoro-7-{4-[2-fluoro-4-((R)-5-hydroxymethyl-2-oxo-oxazolidin-3-yl)-phenoxymethyl]-piperidin-1-yl}-4-oxo-1,4-dihydro-quinoline-3-carboxylic acid], the MIC [1, 11] is reported as over 16 µg/mL and the MIC [6] is reported as 8 µg/mL (≈ 14.3 µM).
`O=C(O)c1cn(C2CC2)c2cc(N3CCC(O)(COc4ccc(N5C[C@H](CO)OC5=O)cc4F)C3)c(F)cc2c1=O` (mixture of isomers) [Example 6, 1-cyclopropyl-6-fluoro-7-{(RS)-3-[2-fluoro-4-((R)-5-hydroxymethyl-2-oxo-oxazolidin-3-yl)-phenoxymethyl]-3-hydroxy-pyrrolidin-1-yl}-4-oxo-1,4-dihydro-quinoline-3-carboxylic acid] showed an MIC [1, 11] of 1 µg/mL, an MIC [7] of 0.25 µg/mL and an MIC [8] of 0.5 µg/mL. It also gave an MIC [9] of 0.25 µg/mL and an MIC [10] of 0.125 µg/mL.
